Test results reported in patent publication US10294202B2, “Pyrrolidinones as herbicides” (FMC Corporation, priority 2013, dated 2019).

Tests used:
[1] = tested on: rice; assay: Test B flooded paddy test; assay type: in vivo, Oryza sativa; details: 500 g ai/ha, Flood; scale of 0 to 100 where 0 is no effect and 100 is complete control
In short: (§1)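 First, plants reach the 2-leaf stage; next, pots are flooded to 3 cm and compound is delivered into the water; finally, after 13 to 15 greenhouse days at constant depth, injury is graded visually from 0 to 100 against controls.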

[2] = tested on: ducksalad; assay: Test B flooded paddy test; assay type: in vivo, Heteranthera limosa; details: 500 g ai/ha, Flood; scale of 0 to 100 where 0 is no effect and 100 is complete control
In short: as §1

[3] = tested on: wheat (winter wheat); assay: Test C pre-/postemergence herbicide test; assay type: in vivo, Triticum aestivum
In short: (§2)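 Greenhouse plants scored visually against untreated controls 13–15 days after treatment, 0 = no effect, 100 = complete control. Test chemicals in a non-phytotoxic solvent with surfactant were applied either to soil (loam/sand) at planting or to foliage of 1- to 4-leaf plants, 2–18 cm tall.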

[4] = tested on: corn; assay: Test C pre-/postemergence herbicide test; assay type: in vivo, Zea mays
In short: as §2

[5] = tested on: morningglory; assay: Test C pre-/postemergence herbicide test; assay type: in vivo, Ipomoea coccinea
In short: as §2

[6] = tested on: pigweed; assay: Test C pre-/postemergence herbicide test; assay type: in vivo, Amaranthus retroflexus
In short: as §2

[7] = tested on: soybean; assay: Test C pre-/postemergence herbicide test; assay type: in vivo, Glycine max
In short: as §2

[8] = tested on: barnyardgrass; assay: Test C pre-/postemergence herbicide test; assay type: in vivo, Echinochloa crus-galli
In short: as §2

[9] = tested on: oilseed rape; assay: Test C pre-/postemergence herbicide test; assay type: in vivo, Brassica napus
In short: as §2

[10] = tested on: waterhemp; assay: Test C pre-/postemergence herbicide test; assay type: in vivo, Amaranthus rudis
In short: as §2

[11] = tested on: oat, wild; assay: Test C pre-/postemergence herbicide test; assay type: in vivo, Avena fatua; details: Postemergence
In short: as §2

[12] = tested on: velvetleaf; assay: Test C pre-/postemergence herbicide test; assay type: in vivo, Abutilon theophrasti
In short: as §2

[13] = Postemergence, 31 g ai/ha, scale 0 to 100 (0 no effect, 100 complete control)
[14] = Postemergence, 62 g ai/ha, scale 0 (no effect) to 100 (complete control)
[15] = Postemergence, 125 g ai/ha, scale 0 to 100 (0 no effect, 100 complete control)
[16] = Postemergence, 250 g ai/ha, scale 0 to 100 (0 no effect, 100 complete control)
[17] = Preemergence, 31 g ai/ha, scale 0 to 100, 0 is no effect and 100 is complete control
[18] = Preemergence, 62 g ai/ha, scale 0 to 100 (0 no effect, 100 complete control)
[19] = Preemergence, 125 g ai/ha, scale 0 to 100 (0 no effect, 100 complete control)
[20] = 31 g ai/ha, scale 0 to 100 (0 no effect, 100 complete control)
[21] = 62 g ai/ha, scale 0 (no effect) to 100 (complete control)
[22] = 125 g ai/ha, scale 0 to 100 (0 no effect, 100 complete control)
[23] = 250 g ai/ha, scale 0 to 100 (0 no effect, 100 complete control)
[24] = Preemergence, 125 g ai/ha, scale 0 to 100

## O=C1NCC(c2cccc(OC(F)F)c2)C1C(=O)Nc1cccc(F)c1F (centres unmarked) [Compound 224]
[1]
  Plant response rating, Rice: 0
[2]
  Plant response rating, Ducksalad: 100
[3]; [13]
  Plant response rating, Wheat: 0
[3]; [14]
  Plant response rating, Wheat: 0
[3]; [15]
  Plant response rating, Wheat: 5
[3]; [16]
  Plant response rating, Wheat: 5
[3]; [17]
  Wheat plant response rating: 0
[3]; [18]
  Wheat plant response rating: 0
[3]; [19]
  Plant response rating, Wheat: 0
[3]; Preemergence, 250 g ai/ha
  Plant response rating (scale of 0 to 100), Wheat: 45
[4]; [13]
  Plant response rating, Corn: 0
[4]; [14]
  Plant response rating, Corn: 0
[4]; [15]
  Plant response rating, Corn: 10
[4]; [16]
  Plant response rating, Corn: 10
[4]; [17]
  Corn plant response rating: 10
[4]; [18]
  Corn plant response rating: 0
[4]; [19]
  Plant response rating, Corn: 85
[4]; Preemergence, 250 g ai/ha
  Plant response rating (scale of 0 to 100), Corn: 85
[5]; [13]
  Plant response rating, Morningglory: 5
[5]; [14]
  Plant response rating, Morningglory: 5
[5]; [15]
  Plant response rating, Morningglory: 35
[5]; [16]
  Plant response rating, Morningglory: 35
[5]; [17]
  Morningglory plant response rating: 5
[5]; [18]
  Morningglory plant response rating: 25
[5]; [19]
  Plant response rating, Morningglory: 5
[5]; Preemergence, 250 g ai/ha
  Plant response rating (scale of 0 to 100), Morningglory: 30
[6]; [13]
  Plant response rating, Pigweed: 40
[6]; [14]
  Plant response rating, Pigweed: 55
[6]; [15]
  Plant response rating, Pigweed: 60
[6]; [16]
  Plant response rating, Pigweed: 65
[6]; [17]
  Pigweed plant response rating: 0
[6]; [18]
  Pigweed plant response rating: 25
[6]; [19]
  Plant response rating, Pigweed: 60
[6]; Preemergence, 250 g ai/ha
  Plant response rating (scale of 0 to 100), Pigweed: 85
[7]; [13]
  Plant response rating, Soybean: 0
[7]; [14]
  Plant response rating, Soybean: 10
[7]; [15]
  Plant response rating, Soybean: 5
[7]; [16]
  Plant response rating, Soybean: 5
[7]; [17]
  Soybean plant response rating: 0
[7]; [18]
  Soybean plant response rating: 100
[7]; [19]
  Plant response rating, Soybean: 0
[7]; Preemergence, 250 g ai/ha
  Plant response rating (scale of 0 to 100), Soybean: 5
[8]; [13]
  Plant response rating, Barnyardgrass: 0
[8]; [14]
  Plant response rating, Barnyardgrass: 30
[8]; [15]
  Plant response rating, Barnyardgrass: 50
[8]; [16]
  Plant response rating, Barnyardgrass: 75
[8]; [17]
  Barnyardgrass plant response rating: 75
[8]; Preemergence, 62 g ai/ha, scale 0 to 100
  Plant response rating, Barnyardgrass: 85
[8]; [19]
  Plant response rating, Barnyardgrass: 90
[8]; Preemergence, 250 g ai/ha
  Plant response rating (scale of 0 to 100; 0 is no effect, 100 is complete control), Barnyardgrass: 95
[9]; [13]
  Plant response rating, Oilseed Rape: 0
[9]; [14]
  Plant response rating, Oilseed Rape: 15
[9]; [15]
  Plant response rating, Oilseed Rape: 20
[9]; [16]
  Plant response rating, Oilseed Rape: 5
[9]; [17]
  Oilseed Rape plant response rating: 0
[9]; [18]
  Oilseed Rape plant response rating: 5
[9]; [19]
  Plant response rating, Oilseed Rape: 70
[9]; Preemergence, 250 g ai/ha
  Plant response rating (scale of 0 to 100), Oilseed Rape: 85
[10]; [13]
  Plant response rating, Waterhemp: 25
[10]; [14]
  Plant response rating, Waterhemp: 35
[10]; [15]
  Plant response rating, Waterhemp: 30
[10]; [16]
  Plant response rating, Waterhemp: 30
[10]; [17]
  Waterhemp plant response rating: 75
[10]; [18]
  Waterhemp plant response rating: 5
[10]; [19]
  Plant response rating, Waterhemp: 70
[10]; Preemergence, 250 g ai/ha
  Plant response rating (scale of 0 to 100), Waterhemp: 80
[11]; [20]
  Plant response rating, Oat, Wild: 0
[11]; [21]
  Plant response rating, Oat, Wild: 0
[11]; [22]
  Plant response rating, Oat, Wild: 5
[11]; [23]
  Plant response rating, Oat, Wild: 15
[12]; [13]
  Plant response rating, Velvetleaf: 0
[12]; [14]
  Plant response rating, Velvetleaf: 0
[12]; [15]
  Plant response rating, Velvetleaf: 25
[12]; [16]
  Plant response rating, Velvetleaf: 35
[12]; [17]
  Velvetleaf plant response rating: 0
[12]; [18]
  Velvetleaf plant response rating: 5
[12]; [19]
  Plant response rating, Velvetleaf: 45
[12]; Preemergence, 250 g ai/ha
  Plant response rating (scale of 0 to 100), Velvetleaf: 40

## O=C1NCC(c2cccc(Br)c2)C1C(=O)Nc1ccc(F)c(F)c1F (centres unmarked) [Compound 310]
[1]
  Plant response rating, Rice: 0
[2]
  Plant response rating, Ducksalad: 100
[3]; [13]
  Plant response rating, Wheat: 0
[3]; [14]
  Plant response rating, Wheat: 0
[3]; [15]
  Plant response rating, Wheat: 0
[3]; [16]
  Plant response rating, Wheat: 0
[3]; [18]
  Wheat plant response rating: 0
[3]; [24]
  Plant response rating, Wheat: 0
[3]; Preemergence, 250 g ai/ha
  Plant response rating (scale of 0 to 100), Wheat: 10
[4]; [13]
  Plant response rating, Corn: 0
[4]; [14]
  Plant response rating, Corn: 0
[4]; [15]
  Plant response rating, Corn: 60
[4]; [16]
  Plant response rating, Corn: 30
[4]; [17]
  Corn plant response rating: 0
[4]; [18]
  Corn plant response rating: 0
[4]; [24]
  Plant response rating, Corn: 55
[4]; Preemergence, 250 g ai/ha
  Plant response rating (scale of 0 to 100), Corn: 55
[5]; [13]
  Plant response rating, Morningglory: 10
[5]; [14]
  Plant response rating, Morningglory: 0
[5]; [15]
  Plant response rating, Morningglory: 10
[5]; [16]
  Plant response rating, Morningglory: 70
[5]; [17]
  Morningglory plant response rating: 0
[5]; [18]
  Morningglory plant response rating: 0
[5]; [24]
  Plant response rating, Morningglory: 5
[5]; Preemergence, 250 g ai/ha
  Plant response rating (scale of 0 to 100), Morningglory: 5
[6]; [13]
  Plant response rating, Pigweed: 35
[6]; [14]
  Plant response rating, Pigweed: 40
[6]; [15]
  Plant response rating, Pigweed: 60
[6]; [16]
  Plant response rating, Pigweed: 70
[6]; [17]
  Pigweed plant response rating: 0
[6]; [18]
  Pigweed plant response rating: 5
[6]; [24]
  Plant response rating, Pigweed: 20
[6]; Preemergence, 250 g ai/ha
  Plant response rating (scale of 0 to 100), Pigweed: 20
[7]; [13]
  Plant response rating, Soybean: 10
[7]; [14]
  Plant response rating, Soybean: 10
[7]; [15]
  Plant response rating, Soybean: 0
[7]; [16]
  Plant response rating, Soybean: 0
[7]; [18]
  Soybean plant response rating: 0
[7]; [24]
  Plant response rating, Soybean: 0
[7]; Preemergence, 250 g ai/ha
  Plant response rating (scale of 0 to 100), Soybean: 0
[8]; [13]
  Plant response rating, Barnyardgrass: 5
[8]; [14]
  Plant response rating, Barnyardgrass: 25
[8]; [15]
  Plant response rating, Barnyardgrass: 50
[8]; [16]
  Plant response rating, Barnyardgrass: 75
[8]; [17]
  Barnyardgrass plant response rating: 50
[8]; [18]
  Barnyardgrass plant response rating: 90
[8]; [19]
  Plant response rating, Barnyardgrass: 90
[8]; Preemergence, 250 g ai/ha
  Plant response rating (scale of 0 to 100; 0 is no effect, 100 is complete control), Barnyardgrass: 95
[9]; [13]
  Plant response rating, Oilseed Rape: 0
[9]; [14]
  Plant response rating, Oilseed Rape: 0
[9]; [15]
  Plant response rating, Oilseed Rape: 0
[9]; [16]
  Plant response rating, Oilseed Rape: 40
[9]; [17]
  Oilseed Rape plant response rating: 0
[9]; [18]
  Oilseed Rape plant response rating: 5
[9]; [24]
  Plant response rating, Oilseed Rape: 40
[9]; Preemergence, 250 g ai/ha
  Plant response rating (scale of 0 to 100), Oilseed Rape: 85
[10]; [13]
  Plant response rating, Waterhemp: 5
[10]; [14]
  Plant response rating, Waterhemp: 10
[10]; [15]
  Plant response rating, Waterhemp: 10
[10]; [16]
  Plant response rating, Waterhemp: 10
[10]; [18]
  Waterhemp plant response rating: 0
[10]; [24]
  Plant response rating, Waterhemp: 25
[10]; Preemergence, 250 g ai/ha
  Plant response rating (scale of 0 to 100), Waterhemp: 25
[11]; [20]
  Plant response rating, Oat, Wild: 0
[11]; [21]
  Plant response rating, Oat, Wild: 0
[11]; [22]
  Plant response rating, Oat, Wild: 0
[11]; [23]
  Plant response rating, Oat, Wild: 0
[12]; [13]
  Plant response rating, Velvetleaf: 35
[12]; [14]
  Plant response rating, Velvetleaf: 0
[12]; [15]
  Plant response rating, Velvetleaf: 0
[12]; [16]
  Plant response rating, Velvetleaf: 40
[12]; [18]
  Velvetleaf plant response rating: 0
[12]; [24]
  Plant response rating, Velvetleaf: 5
[12]; Preemergence, 250 g ai/ha
  Plant response rating (scale of 0 to 100), Velvetleaf: 35
